Experiments:
NO = NO production in LPS-activated microglia (Griess reagent); type: cell-based, mouse; conditions: 1 μg/ml LPS
Description: When the microglia is activated, the expression of NO as a mediator of nerve transmission and immune response is induced (Liu, B. et al., Ann. N.Y. Acad. Sci., 962:318-331, 2002). Therefore, the effect of the lignan compound of the present invention on the NO production in microglia was examined. First, only the neocortex was isolated from the brain of 1 day-old mouse. Then, a microglia-astroglia mixture was prepared according to a method known in the art (Kim, H. Y. et al., J. Immunol., 171:6072-6079, 2003). The microglia-astroglia mixture was then divided at a ratio of 4 flasks/1 head and cultured in MEM medium containing 10% FBS in a 75 cm^2 flask for 2 weeks. The microglia was separated from the cultured cells and cultured in MEM medium containing 5% FBS for 24 hours. The tissue-cultured microglia was inoculated into MEM medium containing 5% FBS at a concentration of 1.5×10^4 cells/well and cultured in a 96-well plate. After 1 day of cultivation, the microglia was treated with 1 μg/ml of LPS (Sigma) to induce activation of the microglia. […] Then, the cell-cultured medium was collected and NO production was measured. The NO production was analyzed by measuring the amount of nitrite as a stable metabolite of NO in the cell-cultured medium using Griess reagent kit (Molecular Probe). […] Then, the absorbance of the resulting solution was measured with a microplate reader at 548 nm.

cell line HT-22 = assay: Reactive oxygen species production in cell line HT-22 (CM-H2DCFDA); type: cell-based; conditions: 5 μM compound, 8 hours
Description: A cell line HT-22 (obtained from Dr. David Schubert) derived from the hippocampus playing a part in memory of the brain was treated with 5 mM of glutamate and 5 μM of the lignan compound of the present invention simultaneously for 8 hours. As a control, the cell line HT-22 was not treated with the lignan compound of the present invention. The treated cell line HT-22 was then treated with CM-H2DCFDA (chloromethyl derivative of dichlorodihydrofluorescein diacetate, Molecular Probes) to analyze the production of reactive oxygen species.

iNOS = iNOS expression in LPS-activated microglia (Western blotting); type: cell-based, mouse; conditions: 1 μg/ml LPS, compound 2.5 and 10 μM, 16 or 24 hours
From the text: In Example <6-2>, it was observed that the NO production induced by LPS in the tissue-cultured microglia of mouse was inhibited by the lignan compound of the present invention. NO is produced by iNOS enzyme of which expression is induced by activation of microglia. Therefore, the correlation between the reduction of NO production and inhibition of iNOS expression was examined. Additionally, a change in the amount of a protein COX-2 participating in the production of other inflammation-mediating materials was examined. For Western blotting analysis, tissue-cultured microglia was cultured in a 60 mm cell culture dish up to a concentration of 7.5×10^5 cells/ml. After 1 day of cultivation, the activation of microglia was induced by 1 μg/ml of LPS (Sigma) treatment. Simultaneously, the microglia was also treated with 2.5 and 10 μM of the lignan compound of the present invention together with LPS, and incubated for 16 or 24 hours. The incubated cell was washed with cold PBS 2 times, and then dissolved in a cold lysis buffer (1% SDS, 1 mM Na3VO4, 10 mM NaF, 10 mM Tris-Cl, pH 7.4 containing 1× protease inhibitors cocktail). […] Then, the amount of proteins was quantified according to BCA method. […]
NaCl containing 0.1% Tween 20) 3 times. […] Again, the membrane was then washed with TBS-T solution 3 times, and each band on the membrane was analyzed using ECL system (Sigma).

IL-6 = IL-6 production in LPS-activated microglia (ELISA); type: cell-based, rat; conditions: 1 μg/ml LPS, compound 2.5 and 10 μM, 24 hours
From the text: When the microglia is activated by LPS, it synthesizes and secretes various pro-inflammatory cytokines such as IL-1, IL-6 and TNF-α (Chen, S. Neurobiol. Aging, 17:781-787, 1996). Therefore, in order to examine the anti-inflammatory effect of the lignan compound of the present invention, the effect of the lignan compound of the present invention on the production of IL-6 and TNF-α in the activated microglia. First, only the neocortex was isolated from the brain of 1 day-old rat. Then, a microglia-astroglia mixture was prepared according to a method known in the art (Kim, H. Y. et al., J. Immunol., 171:6072-6079, 2003). […] Then, the amount of IL-6 and TNF-α secreted into the cell cultured medium was measured with the solid-phase ELISA system (RPN2742 for IL-6, RPN2744 for TNF-α, Amersham Bioscience). For this analysis, 50 μl of the supernatant of the cultured medium of microglia and 50 μl of the standard of each material (purely isolated and quantified IL-6 or TNF-α) were added into a 96-well plate coated with an antibody specific to mouse IL-6 and TNF-α. […] Then, 100 μl of a stop solution (Amersham Bioscience) was added into each well to stop the reaction, and the absorbance of the solution in each well was measured with a microreader at 450 nm. […]

With `COc1cc(C[C@H](C)[C@H](C)Cc2ccc3c(c2)OCO3)ccc1O` [macelignan, (8R,8′S)-7-(3,4-methylenedioxyphenyl)-7′-(4-hydroxy-3-methoxyphenyl)-8,8′-dimethylbutane] the “NO production induced by LPS” value (NO; compound 2.5 and 10 μM, 16 or 24 hours) was “dose-dependently inhibited”, the inhibition at 10 µM (NO; Mus musculus, 10 μM compound, read-out: inhibition rate of NO production) was roughly 90% and the “production of reactive oxygen species induced by glutamate” value (cell line HT-22; HT-22, 5 mM glutamate) was “inhibited”. For the same compound, the “production of reactive oxygen species occurred naturally in a cell” value (cell line HT-22; HT-22 not treated with glutamate) was “significantly inhibited”, the “expression of iNOS induced by LPS” value (iNOS) was “inhibited in a concentration dependent manner” and the “production of IL-6 induced by LPS” value (IL-6) was “dose-dependently inhibited”.

Reference: patent US20080275111A1, “Novel Use of Lignan Compounds” (priority 2005, published 2008)
